The assay deals with asexual P. falciparum 3D7 parasites. The experiment in a line: P. falciparum growth inhibition assay measuring LDH activity (Assay 1). The class given is cell-based. Conditions: 3D7 strain, parasitized red blood cells, 72 h incubation, LDH activity read by absorbance at 650 nm. As for the experimental part:
A modified version of the assay described in Gamo, F. J., Sanz, L. M., Vidal, J., de Cozar, C., Alvarez, E., Lavandera, J. L., Vanderwall, D. E., Green, D. V., Kumar, V., Hasan, S., Brown, J. R., Peishoff, C. E., Cardon, L. R., Garcia-Bustos, J. F., Nature, 465 (2010) 305-310 (Gamo et al.) was used to assess the activity of compounds against asexual P. falciparum 3D7 parasites. Compounds were pre-dispensed in 384-well plates, RPMI/AlbuMAX growth media was added and P. falciparum inoculated. Plates were incubated for 72 h and then frozen at −80° C. overnight. Lactate dehydrogenase (LDH) activity was quantified with the modified cofactor 3-acetylpyridine adenine dinucleotide (APAD) (Sigma Aldrich) by measuring absorbance of the tetrazolium indicator nitro blue tetrazolium (NBT) (Sigma Aldrich) at 650 nm.
An inoculum of synchronous P. falciparum (3D7 strain) parasitized red blood cells (PRBC) at 0.7% parasitaemia and 2% haematocrit in RPMI-1640, 5% AlbuMAX, 2% D-sucrose, 0.3% glutamine and 150 μM hypoxanthine was used for the assay.
Compound master plates (384-well) were prepared by a 10 pt serial dilution of compounds, from 1 mM to 50.8 nM, in columns 3-12 and 13-22. DMSO was dispensed into columns 1 and 23 of the compound master plate to be used as the positive growth control (100% viability). […] Intermediate compound dilution plates were prepared by dispensing 1 μl from each well of the compound master plate into 11.5 μl of RPMI/AlbuMAX growth media. Duplicate assay plates (384-well) were then prepared by dispensing 0.5 μL of compound from the intermediate dilution plates into 9.5 μl of RPMI/AlbuMAX growth media. The parasite inoculum (30 μL) was dispensed into the assay plates containing compounds using a Multidrop dispenser (Thermo Scientific) such that the final assay volume was 40 μL and final compound concentration was 1 μM-0.05 nM (the volume of compound addition can be adjusted to the preferred and agreed screening concentration). The final DMSO concentration was 0.1% (ideally 0.2% to limit toxicity to parasites), but this is dependent on volume of compound DMSO stock solution that can be supplied. Plates were incubated at 37° C. for 72 h in an atmosphere of 5% CO2, 5% O2, […].
After 72 h of incubation, plates were frozen at −80° C. overnight and then thawed at room temperature for at least 4 h. To evaluate LDH activity, 45 μL of freshly made reaction mix (174 mM sodium L-lactate (Sigma Aldrich), 214 μM 3-acetyl pyridine adenine dinucleotide (APAD) (Sigma Aldrich), 270 μM nitro blue tetrazolium chloride (NBT) (Sigma Aldrich), 4.35 U/mL diaphorase (from Clostridium kluyveri) (Sigma Aldrich), 0.7% Tween 20, 100 mM Tris-HCl pH 7.5) was dispensed using a Multidrop dispenser (Thermo Scientific). Plates were shaken to ensure mixing and absorbance at 650 nm was monitored using a Perkin Elmer Envision plate reader after 30 min of incubation at room temperature. Data were normalized to percent growth inhibition using positive and negative controls, and analysed using TIBCO Spotfire software. […]

The mark [1] stands for this setting: Plasmodium falciparum, 3D7, Erythrocyte, 72 h.

pIC50: −log10 of the molar value.

By pIC50 is commonly meant the IC50 on a negative log10 scale, so that one unit is a factor of ten. The low end stands for a large IC50, the high end for a small IC50.

`CC(C)[C@]1(C)CC(=O)N(Cc2cc(C(=O)N[C@@H](C)c3ccccc3)ccc2F)C(=N)N1` [Compound 18]: the pIC50 under setting [1] is 7.89. On the same count and under the same terms, then `COCC[C@H](NC(=O)c1cccc(CN2C(=N)N[C@](C)(C(C)C)CC2=O)c1)c1ccccc1` [Compound 10], with 8.27; and `CC(C)[C@]1(C)CC(=O)N([C@H](C)c2cc(F)cc(C(=O)N[C@@H](C)c3ccccc3)c2)C(=N)N1` [Compound 13], with 8.19.

For `CC(C)[C@]1(C)CC(=O)N(C(c2ccccc2)c2cccc(C(=O)N[C@@H](C)c3ccccc3)c2)C(=N)N1` (some centres unmarked) [Compound 1], the pIC50 is 8.52.

On to `C[C@H](NC(=O)c1cc(F)cc(CN2C(=N)N[C@@](C)(c3ccccc3)CC2=O)c1)c1ccccc1` [Compound 36], for which the negative-log IC50 (pIC50) under setting [1] was 6.89.

The values above are taken from patent US11766435B2, “N3-substituted iminopyrimidinones as antimalarial agents” (Merck Sharp & Dohme LLC, priority 2016, dated 2023).
